Reference: patent publication US20030069285A1 (Recordati Ireland Limited, priority 2001, published 2003)

Key:
isolated rat aorta = details: in vitro; even after the drug has been removed from the environment of the aortic tissue for 6 hours; cited from earlier work
[1] = Thermogravimetric analysis (TG and TGFTIR); format: physicochemical; details: heated in nitrogen stream at 10° C./min; only CO2 is present
Method: Each sample weighing 2 to 5 mg was placed in an aluminum crucible of an apparatus PERKIN ELMER TGS-2 Thermogravimetric System (Perkin-Elmer International, Inc., Rotkreuz, Switzerland) and heated in nitrogen stream at a rate of 10° C./min. The thermogravimetric analysis together with an IR analysis in Fourier transform was carried out according to the following operating modes. Each sample weighing 2 to 5 mg was placed in an aluminum crucible of an apparatus Netzsch Thermomicrobalance TG209 (Netzsch Gerätebau, Seib, Germany) coupled with a spectrometer in Fourier transform BRUKER FTIR Vector 22 (Spectrospin, Fällanden, Switzerland) and heated in nitrogen stream at a rate of 10° C./min.

Molecule	isolated rat aorta response to high K+ (isolated rat aorta)	temperature above which degradation was observed [1]
COC(=O)C1=C(C)NC(C)=C(C(=O)OC(C)(C)CN(C)CCC(c2ccccc2)c2ccccc2)C1c1cccc([N+](=O)[O-])c1 (centres unmarked) [Lercanidipine, methyl 1,1,N-trimethyl-N-(3,3-diphenylpropyl)-2-aminoethyl 1,4-dihydro-2,6-dimethyl-4-(3-nitrophenyl)pyridine-3,5-dicarboxylate]	attenuated	
lercanidipine hydrochloride-terbutyl methyl ether		above 180 °C
